Results on 1 cell line are retold here after the supplement of paper PMC10307832.

What all share (assay): relative viability (nuclei count vs DMSO), 5 days (fraction); higher = more cells survive
Compound in experiment [1]: O=S(=O)(c1ccccc1)N(CC(F)(F)F)c1ccc(C(O)(C(F)(F)F)C(F)(F)F)cc1 + C[C@@H](Oc1cc(-c2cnn(C3CCNCC3)c2)cnc1N)c1c(Cl)ccc(F)c1Cl [Crizotinib] (partner 1 µM)
The procedure, abridged:
(§1)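 Relative viability equals treated-well nuclei counts divided by vehicle-well nuclei counts. Counts came from 4× images of lung cancer cell lines grown in 1536-well plates for 5 days after pin-tool dosing on the day after seeding. Dosing used one drug alone or a fixed anchor-drug dose plus five library-drug doses (not always all listed) in √10 steps, and values are medians of duplicate plates.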

Compound in experiment [2]: O=S(=O)(c1ccccc1)N(CC(F)(F)F)c1ccc(C(O)(C(F)(F)F)C(F)(F)F)cc1 + O=C(CCCCCCC(=O)Nc1ccccc1)NO [Vorinostat] (partner 1 µM)
In a few lines:
as §1

Compound in experiment [3]: O=S(=O)(c1ccccc1)N(CC(F)(F)F)c1ccc(C(O)(C(F)(F)F)C(F)(F)F)cc1 + COc1cccc2cc(-c3nc([C@H]4CC[C@H](C(=O)O)CC4)n4ncnc(N)c34)[nH]c12 [OSI-027] (partner 0.5 µM)
In a few lines: as §1

Compound in experiment [4]: C1=CC2=C(C=CC(=C2)C=C3C(=O)NC(=NCC4=CC=CS4)S3)N=C1 [RO-3306] + Cc1nc(Nc2ncc(C(=O)Nc3c(C)cccc3Cl)s2)cc(N2CCN(CCO)CC2)n1 [Dasatinib] (partner 0.075 µM)
In a few lines:
as §1

Compound in experiment [5]: C1=CC2=C(C=CC(=C2)C=C3C(=O)NC(=NCC4=CC=CS4)S3)N=C1 [RO-3306] + CS(=O)(=O)CCNCc1ccc(-c2ccc3ncnc(Nc4ccc(OCc5cccc(F)c5)c(Cl)c4)c3c2)o1 [Lapatinib] (partner 2 µM)
In a few lines:
as §1

As to UMC-11, the relative viability in experiment [1] (first compound 0.8 µM) was 0.585; in experiment [1] (first compound 2.53 µM) it was 0.583; in experiment [1] (first compound 8 µM), 0.749; in experiment [2] (first compound 0.8 µM), 0.381; in experiment [2] (first compound 2.53 µM), 0.357; in experiment [2] (first compound 8 µM), 0.396. Also, the relative viability is 0.491 in experiment [3] (first compound 0.8 µM); 0.444 in experiment [3] (first compound 2.53 µM); 0.526 in experiment [3] (first compound 8 µM); 0.553 in experiment [4] (first compound 0.01 µM); 0.341 in experiment [4] (first compound 0.03162 µM); 0.432 in experiment [4] (first compound 0.1 µM). Also, the relative viability in experiment [4] (first compound 0.3162 µM) stood at 0.546; in experiment [4] (first compound 1 µM), 0.453; in experiment [5] (first compound 0.01 µM), 1.06; in experiment [5] (first compound 0.03162 µM) it was 0.676; in experiment [5] (first compound 0.1 µM), 0.829; in experiment [5] (first compound 0.3162 µM) it was 0.971. For the same cell line, the relative viability in experiment [5] (first compound 1 µM) was determined as 0.671.
